Source: publication PMC4659708 (Nature, 2015)

Legend:
[1] = molecular target: T1, α1 glycine receptor (GlyREM) (Danio rerio, UniProt O93430, DEL334-400/INS333AGT); experiment: TEVC in Xenopus oocytes, agonist activation; assay type: cell-based
T1 sequence (O93430 with tags, fused parts or gaps INS333AGT/DEL334-400): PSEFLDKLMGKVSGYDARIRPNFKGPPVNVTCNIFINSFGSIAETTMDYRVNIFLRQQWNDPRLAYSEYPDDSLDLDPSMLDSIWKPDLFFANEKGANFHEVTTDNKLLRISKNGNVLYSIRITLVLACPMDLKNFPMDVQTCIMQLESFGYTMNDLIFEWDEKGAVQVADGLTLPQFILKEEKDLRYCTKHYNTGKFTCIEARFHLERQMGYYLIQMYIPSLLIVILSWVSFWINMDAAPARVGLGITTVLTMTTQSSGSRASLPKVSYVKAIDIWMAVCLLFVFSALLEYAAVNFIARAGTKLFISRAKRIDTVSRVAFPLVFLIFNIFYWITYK

[2] = molecular target: T1, α1 glycine receptor (GlyREM); experiment: TEVC in Xenopus oocytes, block of glycine current at […]; assay type: cell-based; conditions: read-out: % inhibition at 1 mM

| Structure (SMILES) | EC50 [1] | inhibition at 1000 µM [2] |
| --- | --- | --- |
| NCC(=O)O [gly, glycine] | 260 µM |  |
| C=C(C)[C@@H]1[C@H]2OC(=O)[C@@H]1[C@]1(O)C[C@H]3O[C@]34C(=O)O[C@H]2[C@]14C [ptx, picrotoxinin] |  | ~80% |
